Measured values reported in patent publication US8552220B2, “Therapeutic agent for Alzheimer's disease” (Tokyo Institute of Technology, priority 2008, dated 2013).

| SMILES | melting point [°C] |
| --- | --- |
| COc1cc(O)ccc1/C=C/C(=O)CC(=O)/C=C/c1ccc(N(C)C)cc1Cl [CU581, (1E,6E)-1-(2-chloro-4-dimethylaminophenyl)-7-(4-hydroxy-2-methoxyphenyl)hepta-1,6-diene-3,5-dione] | 187 to 192 |
| O=C(/C=C/c1ccc(O)cc1)CC(=O)/C=C/c1ccccc1-c1cccc2ccccc12 [CU528, (1E,6E)-1-(4-hydroxyphenyl)-7-[2-(naphthalen-1-yl)phenyl]hepta-1,6-diene-3,5-dione] | 95 to 101 |
| COc1ccc(/C=C/C(=O)CC(=O)/C=C/c2ccc(O)cc2Cl)cc1O [CU130, (1E,6E)-1-(2-chloro-4-hydroxyphenyl)-7-(3-hydroxy-4-methoxyphenyl)hepta-1,6-diene-3,5-dione] | 120 to 130 |
| CN(C)S(=O)(=O)c1ccccc1/C=C/C(=O)CC(=O)/C=C/c1ccc(O)cc1 [CU480, (1E,6E)-1-[2-(dimethylaminosulfonyl)phenyl]-7-(4-hydroxyphenyl)hepta-1,6-diene-3,5-dione] | 86 to 90 |
| CCN(CC)c1ccc(/C=C/C(=O)CC(=O)/C=C/c2ccc(O)cc2)c(OC(=O)c2ccccc2)c1 [CU425, (1E,6E)-1-(2-benzoyloxy-4-diethylaminophenyl)-7-(4-hydroxyphenyl)hepta-1,6-diene-3,5-dione] | 212 to 215 |
| O=C(/C=C/c1ccc(O)cc1)CC(=O)/C=C/c1ccccc1-n1cncn1 [CU623, (1E,6E)-1-[2-(1H-1,2,4-triazol-1-yl)phenyl]-7-(4-hydroxyphenyl)hepta-1,6-diene-3,5-dione] | 186 to 192 |
| CCOC(=O)c1cn(-c2ccccc2/C=C/C(=O)CC(=O)/C=C/c2ccc(O)cc2)nn1 [CU625, (1E,6E)-1-[2-(4-ethoxycarbonyl-1H-1,2,3-triazol-1-yl)phenyl]-7-(4-hydroxyphenyl)hepta-1,6-diene-3,5-dione] | 231 to 237 |
| O=C(/C=C/c1ccc2cc[nH]c2c1)CC(=O)/C=C/c1cc(OCc2ccccc2)ccc1[N+](=O)[O-] [CU588, (1E,6E)-1-(5-benzyloxy-2-nitrophenyl)-7-(1H-indol-6-yl)hepta-1,6-diene-3,5-dione] | 181 to 186 |
| O=C(/C=C/c1cc(O)ccc1Br)CC(=O)CCc1ccc(O)cc1 [CU549, (E)-1-(2-bromo-5-hydroxyphenyl)-7-(4-hydroxyphenyl)hept-1-ene-3,5-dione] | 161 to 165 |
| O=C(/C=C/c1ccc(O)cc1)CC(=O)/C=C/c1cc(C(F)(F)F)ccc1F [CU473, (1E,6E)-1-(2-fluoro-5-trifluoromethylphenyl)-7-(4-hydroxyphenyl)hepta-1,6-diene-3,5-dione] | 168 to 174 |
| COC(=O)c1ccccc1/C=C/C(=O)CC(=O)/C=C/c1ccc(O)cc1 [CU478, (1E,6E)-1-(4-hydroxyphenyl)-7-[2-(methoxycarbonyl)phenyl]hepta-1,6-diene-3,5-dione] | 145 to 150 |
| O=C(/C=C/c1ccc2cc[nH]c2c1)CC(=O)/C=C/c1cc(OCc2ccccc2)ccc1-c1ccccc1 [CU566, (1E,6E)-1-(4-benzyloxybiphenyl-2-yl)-7-(1H-indol-6-yl)hepta-1,6-diene-3,5-dione] | 178 to 183 |
| COc1cc(/C=C/C(=O)CC(=O)/C=C/c2ccc(O)cc2Cl)ccc1O [CU129, (1E,6E)-1-(2-chloro-4-hydroxyphenyl)-7-(4-hydroxy-3-methoxyphenyl)hepta-1,6-diene-3,5-dione] | 185 to 192 |
| COc1ccc(O)cc1/C=C/C(=O)CC(=O)/C=C/c1cc(O)ccc1Br [CU608, (1E,6E)-1-(2-bromo-5-hydroxyphenyl)-7-(5-hydroxy-2-methoxyphenyl)hepta-1,6-diene-3,5-dione] | 90 to 96 |
| O=C(/C=C/c1ccc(O)cc1)CC(=O)/C=C/c1ccccc1-c1ccccc1 [CU472, (1E,6E)-1-(biphenyl-2-yl)-7-(4-hydroxyphenyl)hepta-1,6-diene-3,5-dione] | 180 to 188 |
| O=C(/C=C/c1cc(O)ccc1-c1ccccc1)CC(=O)CCc1ccc(O)cc1 [CU541, (E)-1-(4-hydroxybiphenyl-2-yl)-7-(4-hydroxyphenyl)hept-1-ene-3,5-dione] | 148 to 158 |
| O=C(/C=C/c1ccc(O)cc1)CC(=O)/C=C/c1cc(O)ccc1-c1cccc2ccccc12 [CU538, (1E,6E)-1-[5-hydroxy-2-(naphthalen-1-yl)phenyl]-7-(4-hydroxyphenyl)hepta-1,6-diene-3,5-dione] | 215 to 221 |
| O=C(/C=C/c1ccc(O)cc1)CC(=O)/C=C/c1ccccc1Br [CU486, (1E,6E)-1-(2-bromophenyl)-7-(4-hydroxyphenyl)hepta-1,6-diene-3,5-dione] | 155 to 159 |
| COc1cc(O)ccc1/C=C/C(=O)CC(=O)/C=C/c1cc(OCc2ccccc2)ccc1-c1ccccc1 [CU559, (1E,6E)-1-(4-benzyloxybiphenyl-2-yl)-7-(4-hydroxy-2-methoxyphenyl)hepta-1,6-diene-3,5-dione] | 175 to 180 |
| O=C(/C=C/c1ccc(O)cc1)CC(=O)/C=C/c1ccc(N2CCC(Cc3ccccc3)CC2)cc1Br [CU1091, (1E,6E)-1-[4-(4-benzylpiperidin-1-yl)-2-bromophenyl]-7-(4-hydroxyphenyl)hepta-1,6-diene-3,5-dione] | 155 to 161 |
| [N-]=[N+]=Nc1ccccc1/C=C/C(=O)CC(=O)/C=C/c1ccc(O)cc1 [CU651, (1E,6E)-1-(2-azidophenyl)-7-(4-hydroxyphenyl)hepta-1,6-diene-3,5-dione] | 153 to 161 |
| CN(C)c1ccc(/C=C/C(=O)CC(=O)/C=C/c2ccc(O)cc2)c([N+](=O)[O-])c1 [CU194, (1E,6E)-1-(4-dimethylamino-2-nitrophenyl)-7-(4-hydroxyphenyl)hepta-1,6-diene-3,5-dione] | 217 to 222 |
| COc1cc(O)ccc1/C=C/C(=O)CC(=O)/C=C/c1ccccc1C(F)(F)F [CU574, (1E,6E)-1-(4-hydroxy-2-methoxyphenyl)-7-(2-trifluoromethylphenyl)hepta-1,6-diene-3,5-dione] | 176 to 180 |
| CCOC(=O)c1cnnn1-c1ccccc1/C=C/C(=O)CC(=O)/C=C/c1ccc(O)cc1 [CU626, (1E,6E)-1-[2-(5-ethoxycarbonyl-1H-1,2,3-triazol-1-yl)phenyl]-7-(4-hydroxyphenyl)hepta-1,6-diene-3,5-dione] | 93 to 96 |
| O=C(/C=C/c1ccc(O)cc1)CC(=O)/C=C/c1ccc(N2CCCCC2)cc1Br [CU1090, (1E,6E)-1-[2-bromo-4-(piperidin-1-yl)phenyl]-7-(4-hydroxyphenyl)hepta-1,6-diene-3,5-dione] | 238 to 248 |
| CCOC(=O)Cn1cc(-c2ccccc2/C=C/C(=O)CC(=O)/C=C/c2ccc(O)cc2)nn1 [CU646, (1E,6E)-1-[2-(1-ethoxycarbonylmethyl-1H-1,2,3-triazol-4-yl)phenyl]-7-(4-hydroxyphenyl)hepta-1,6-diene-3,5-dione] | 99 to 105 |
| COc1cc(O)ccc1/C=C/C(=O)CC(=O)/C=C/c1cc(O)ccc1Br [CU561, (1E,6E)-1-(2-bromo-5-hydroxyphenyl)-7-(4-hydroxy-2-methoxyphenyl)hepta-1,6-diene-3,5-dione] | 92 to 98 |
